Source: US20230278987A1, “Antimicrobial Compounds and Methods” (Curza Global, LLC, priority 2019, published 2023)
In brackets after ≈: the same amount, converted by molar mass. Structures can show the parent of a compound that is named as a salt. Where two headings read alike, the source gives them in different places.

Key:
[1] = target: Rabbit Reticulocyte Lysate (eukaryotic protein synthesis); test: Rabbit Reticulocyte Lysate: inhibition of eukaryotic protein synthesis (luciferase); type: biochemical; details: 30° C. for 90 minutes, read-out: retic. IC50
Protocol: Inhibition of eukaryotic protein synthesis was determined using the Rabbit Reticulocyte Lysate System, Nuclease-Treated from Promega (catalog #L-4960) with slight modifications to the manufacturer’s protocol. Compounds were serial diluted in 0.5 mL microcentrifuge tubes by mixing and transferring 50 µL from the highest concentration to 50 µL of water, mixing and transferring 50 µL of this 2-fold dilution to 50 µL of water. This mixing and transferring was repeated so that there are a total of 8 tubes with serial dilutions of compound at 10× the desired screening concentration that are ultimately diluted to 1× by the addition of rabbit reticulocyte luciferase synthesis mixture. Serial dilutions of compounds were added (2.5 µL) to wells in a black round bottom 96-well plate. Water (2.5 µL) was used as a “no inhibitor” control in 4 wells/plate. No RNA control reaction mixture (2 µL; see below) was used as a control in 4 wells/plate for background luminescence. Rabbit reticulocyte luciferase synthesis mixture (22.5 µL; see below) was added to wells with compounds or water mixture and incubated at 30° C. for 90 minutes. Luciferase assay reagent (25 µL) was added with luminescence measured using a BioTek Synergy HTX plate reader. % Inhibition was determined relative to no inhibitor controls.
Rabbit reticulocyte luciferase synthesis mixture: • 1,000 µL rabbit reticulocyte lysate • 5.7 µL Luciferase Control RNA (1 µg/ µL) • 26 µL complete amino acid mixture • 395 µL water
No RNA Control • 70 µL rabbit reticulocyte lysate • 2 µL complete amino acid mixture • 28 µL water

[2] = system: E.coli (Ec); test: Broth microdilution MIC against E.coli (Ec); type: cell-based; details: for MIC: Escherichia coli
Protocol: (§1) A certified BSL-2 laboratory was used for testing. Compounds were evaluated using the broth microdilution minimum inhibitory concentration (MIC) and minimum bactericidal concentration (MBC) assays defined by Clinical and Laboratory Standards Institute (CLSI) in the M26-A guideline against S.aureus (Sa), E.coli (Ec), K.pneumoniae (Kp), A.baumannii (Ab), E.faecalis (Ef) and P.aeruginosa (Pa).
(§2) MICs were determined using the Clinical Laboratory and Standards Institute (CLSI) Broth Microdilution Method with slight modification. Clinical and Laboratory Standards Institute (2012). “Methods for dilution antimicrobial susceptibility tests for bacteria that grow aerobically; approved standard, 9th ed. M07-A9. Clinical and Laboratory Standards Institute, Wayne, PA.” Serial two-fold dilutions of compounds are prepared in sterile clear roundbottom 96-well plates.
(§3) To prepare microdilution trays, two-fold dilutions of antimicrobial agent are prepared in growth medium: Cation-Adjusted Mueller-Hinton Broth (CAMHB), or CAMHB supplemented with sodium bicarbonate (6.25 or 25 mM final concentration prepared from a 1.0 M stock solution) or CAMHB supplemented with heat inactivated human serum (Fisher Cat. # BP2657100) 0-50% by adding 200 µL of the highest concentration to be tested (64 µg/mL, for example) in row A, mixing and transferring 100 µL from row A to 100 µL growth medium in row B, then repeating the mixing and transferring through row H of the 96-well plate, discarding the excess 100 µL remaining. This slight modification to the CLSI protocol enables evaluation of MICs for 3 compounds per plate in triplicate, albeit with only 8 compound dilutions (CLSI protocol enables 2 compounds in triplicate with 10 dilutions). Bacterial suspensions are added to a final concentration of 5 × 10^4 CFU/well by adding 5 µL of a 1:10 dilution of a 0.5 McFarland suspension (1 × 10^8 CFU/mL) for each bacterium evaluated. Bacterial suspensions were prepared using the growth method described by CLSI. Well-isolated colonies (3-5 from an agar plate) were selected using a sterile loop and used to inoculate a tube containing 4 mL of CAMHB. The cultures are incubated at 35 ± 2° C. until it achieves or exceeds the turbidity of the 0.5 McFarland standard, determined by measuring A600nm (usually two to six hours). When growth exceeds a 0.5 McFarland standard, the turbidity is adjusted with broth to be equivalent to a 0.5 McFarland standard.

[3] = system: S.aureus (Sa); test: Broth microdilution MIC against S.aureus (Sa); type: cell-based; details: Staphylococcus aureus, read-out: Sa + bicarb 25 (MIC)
Protocol: as §1, §2, §3

[4] = system: E.faecalis (Ef); test: Broth microdilution MIC against E.faecalis (Ef); type: cell-based; details: Enterococcus faecalis, read-out: Ef +bicarb 25 (MIC)
Protocol: as §1, §2, §3

[5] = system: E.coli S30 extract (bacterial protein synthesis); test: E.coli S30 extract: inhibition of bacterial protein synthesis (luciferase); type: biochemical; details: 37° C. for 1 hour
Protocol: E.coli S30 extract: Inhibition of bacterial protein synthesis was determined using the E.coli S30 Extract System for Circular DNA (Promega catalog #L-2010) and Luciferase Assay Reagent (Promega catalog #E1500) with slight modifications to a published protocol. Fyfe, C., Sutcliffe, J.A. and Grossman, T.H. (2012) “Development and characterization of a Pseudomonas aeruginosa in vitro coupled transcription-translation assay system for evaluation of translation inhibitors” J. Microbiol. Methods 90(3), 256-261.
Compounds were serial diluted in 0.5 mL microcentrifuge tubes by mixing and transferring 50 µL from the highest concentration to 50 µL of water, mixing and transferring 50 µL of this 2-fold dilution to 50 µL of water. This mixing and transferring was repeated so that there are a total of 8 tubes with serial dilutions of compound at 10× the desired screening concentration that are ultimately diluted to 1× by the addition of S30 luciferase synthesis mixture. Serial dilutions of compounds were added (2 µL) to wells in a black round bottom 96-well plate. Water (2 µL) was used as a “no inhibitor” control in 4 wells/plate. No DNA control reaction mixture (20 µL; see below) was used as a control in 4 wells/plate for background luminescence. S30 luciferase synthesis mixture (18 µL; see below) was added to wells with compounds or water mixture and incubated at 37° C. for 1 hour. Reactions were stopped by transferring to 4° C. refrigerator for 5 minutes then 25 µL of luciferase activity mix was added. Luminescence was measured using a BioTek Synergy HTX plate reader. % Inhibition was determined relative to no inhibitor controls.
S30 luciferase synthesis mixture: • 445 µL S30 extract, circular • 712 µL S30 Premix without amino acids • 4.45 µL pBESTluc™ DNA (1 µg/ µL) • 78 µL complete amino acid mixture • 267 µL water
No DNA control: • 20 µL S30 extract, circular • 32 µL S30 Premix without amino acids • 7 µL complete amino acid mixture • 21 µL water

[6] = system: A.baumannii (Ab); test: Broth microdilution MIC against A.baumannii (Ab); type: cell-based; details: for MIC: Acinetobacter baumannii, read-out: Ab +bicarb 25 (MIC)
Protocol: as §1, §2, §3

[7] = system: P.aeruginosa (Pa); test: Broth microdilution MIC against P.aeruginosa (Pa); type: cell-based; details: for MIC: Pseudomonas aeruginosa, read-out: Pa +bicarb 25 (MIC)
Protocol: as §1, §2, §3

[8] = CAMHB supplemented with sodium bicarbonate 25 mM, read-out: E.coli + bicarb 25 (MIC)
[9] = CAMHB supplemented with sodium bicarbonate 25 mM
[10] = read-out: E.coli + bicarb 25 (MIC)

Row | SMILES | IC50 [1] | MIC [2, 8] | MIC [3, 9] | MIC [4, 9] | IC50 [5] | MIC [6, 9] | MIC [7, 9] | E.coli + bicarb 25 (MIC) [2, 9] | MIC ([2]; read-out: E. coli + bicarb 6.25 (MIC)) | MIC [3] | MIC [4] | Ab +bicarb 25 (MIC) [6, 9] | Pa +bicarb 25 (MIC) [7, 9] | MIC [2, 10] | MIC [6] | MIC [7]
1 | CC(C)(N)C(=O)N1CCN(C(=O)Nc2ccn(-c3ccc4c(c3)CCC(N[C@H]3CC[C@H](N)CC3)C4)c(=O)n2)CC1 (stereo partly drawn) [Compound 7] | ≥ 1 µM | < 8 µg/mL | < 8 µg/mL | < 8 µg/mL | < 0.5 µM | > 32 µg/mL | > 32 µg/mL | – | – | – | – | – | – | – | – | –
2 | CC(C)(N)C(=O)N1CCN(C(=O)Nc2ccn(-c3ccc4c(c3)CCC(NC3CC5(CC(N)C5)C3)C4)c(=O)n2)CC1 (stereo not drawn) [Compound 8] | ≥ 1 µM | < 8 µg/mL | < 8 µg/mL | < 8 µg/mL | < 0.5 µM | 8 to 32 µg/mL (≈ 14.2 to 56.9 µM) | 8 to 32 µg/mL (≈ 14.2 to 56.9 µM) | – | – | – | – | – | – | – | – | –
3 | CC(C)(N)C(=O)N1CCN(C(=O)Nc2ccn(-c3ccc4c(c3)CCC(N[C@H]3CC[C@H](N)C3)C4)c(=O)n2)CC1 (stereo partly drawn) [Compound 9, 4-(2-amino-2-methylpropanoyl)-N-(1-(6-(((1S,3S)-3-aminocyclopentyl)amino)-5,6,7,8-tetrahydronaphthalen-2-yl)-2-oxo-1,2-dihydropyrimidin-4-yl)piperazine-1-carboxamide hydrochloride salt] | ≥ 1 µM | – | – | – | < 0.5 µM | – | – | +++ (An MIC value (µg/mL) that is less than 8 µg/mL) | < 8 µg/mL | < 8 µg/mL | < 8 µg/mL | + (An MIC value (µg/mL) that is 32 µg/mL or greater) | + (An MIC value (µg/mL) that is 32 µg/mL or greater) | – | – | –
4 | CN(C1CCc2cc(-n3ccc(NC(=O)N4CCN(C(=O)C(C)(C)N)CC4)nc3=O)ccc2C1)C1CC2(CC(N)C2)C1 (stereo not drawn) [Compound 11] | ≥ 1 µM | < 8 µg/mL | < 8 µg/mL | < 8 µg/mL | 0.5 to 1 µM | > 32 µg/mL | > 32 µg/mL | – | – | – | – | – | – | – | – | –
5 | CC(C)(N)C(=O)N1CCN(C(=O)Nc2ccn(-c3ccc4c(c3)OCC(N3C[C@@H]5[C@@H](CN)[C@@H]5C3)C4)c(=O)n2)CC1 (stereo partly drawn) [Compound 12, exo-4-(2-amino-2-methylpropanoyl)-N-(1-(3-(-6-(aminomethyl)-3-azabicyclo[3.1.0]hexan-3-yl)chroman-7-yl)-2-oxo-1,2-dihydropyrimidin-4-yl)piperazine-1-carboxamide hydrochloride salt] | ≥ 1 µM | < 8 µg/mL | 8 to 32 µg/mL | > 32 µg/mL | ≥ 1 µM | > 32 µg/mL | > 32 µg/mL | – | – | – | – | – | – | – | – | –
6 | CC(C)(N)C(=O)N1CCN(C(=O)Nc2ccn(-c3ccc4c(c3)OCC(N3C[C@@H]5[C@@H](N)[C@@H]5C3)C4)c(=O)n2)CC1 (stereo partly drawn) [Compound 13, Hydrochloride Salt] | ≥ 1 µM | 8 to 32 µg/mL | 8 to 32 µg/mL | 8 to 32 µg/mL | ≥ 1 µM | 8 to 32 µg/mL | 8 to 32 µg/mL | – | – | – | – | – | – | – | – | –
7 | CC(C)(N)C(=O)N1CCN(C(=O)Nc2ccn(-c3ccc4c(c3)OCC(N3CC[C@@H](CN)C3)C4)c(=O)n2)CC1 (stereo partly drawn) [Compound 14] | ≥ 1 µM | < 8 µg/mL | < 8 µg/mL | 8 to 32 µg/mL (≈ 14.9 to 59.4 µM) | ≥ 1 µM | 8 to 32 µg/mL (≈ 14.9 to 59.4 µM) | 8 to 32 µg/mL (≈ 14.9 to 59.4 µM) | – | – | – | – | – | – | – | – | –
8 | CN(C1CCc2cc(-n3ccc(NC(=O)N4CCN(C(=O)C(C)(C)N)CC4)nc3=O)ccc2C1)[C@H]1CC[C@H](N)CC1 (stereo partly drawn) [Compound 15, 4-(2-amino-2-methylpropanoyl)-N-(1-(6-(((1r,4r)-4-aminocyclohexyl)(methyl)amino)-5,6,7,8-tetrahydronaphthalen-2-yl)-2-oxo-1,2-dihydropyrimidin-4-yl)piperazine-1-carboxamide hydrochloride salt] | ≥ 1 µM | < 8 µg/mL | < 8 µg/mL | < 8 µg/mL | < 0.5 µM | 8 to 32 µg/mL | 8 to 32 µg/mL | – | – | – | – | – | – | – | – | –
9 | CCN(C1CCc2cc(-n3ccc(NC(=O)N4CCN(C(=O)C(C)(C)N)CC4)nc3=O)ccc2C1)[C@H]1CC[C@H](N)CC1 (stereo partly drawn) [Compound 16, 4-(2-Amino-2-methylpropanoyl)-N-(1-(6-(((trans)-4-aminocyclohexyl)(ethyl)amino)-5,6,7,8-tetrahydronaphthalen-2-yl)-2-oxo-1,2-dihydropyrimidin-4-yl)piperazine-1-carboxamide hydrochloride salt] | ≥ 1 µM | – | – | – | < 0.5 µM | – | – | – | – | < 8 µg/mL | < 8 µg/mL | – | – | < 8 µg/mL | 8 to 32 µg/mL | 8 to 32 µg/mL
10 | CC(C)(N)C(=O)N1CCN(C(=O)Nc2ccn(-c3ccc4c(c3)CCC(N(CC3CC3)[C@H]3CC[C@H](N)CC3)C4)c(=O)n2)CC1 (stereo partly drawn) [Compound 17, 4-(2-Amino-2-methylpropanoyl)-N-(1-(6-(((trans)-4-aminocyclohexyl)(cyclopropylmethyl)amino)-5,6,7,8-tetrahydronaphthalen-2-yl)-2-oxo-1,2-dihydropyrimidin-4-yl)piperazine-1-carboxamide hydrochloride salt] | ≥ 1 µM | – | – | – | 0.5 to 1 µM | – | – | – | – | < 8 µg/mL | < 8 µg/mL | – | – | < 8 µg/mL | 8 to 32 µg/mL | 8 to 32 µg/mL
11 | CC(C)(N)C(=O)N1CCN(C(=O)Nc2ccn(-c3ccc4c(c3)OCC(N3CC[C@H](CN)C3)C4)c(=O)n2)CC1 (stereo partly drawn) [Compound 18] | ≥ 1 µM | < 8 µg/mL | < 8 µg/mL | 8 to 32 µg/mL (≈ 14.9 to 59.4 µM) | ≥ 1 µM | 8 to 32 µg/mL (≈ 14.9 to 59.4 µM) | 8 to 32 µg/mL (≈ 14.9 to 59.4 µM) | – | – | – | – | – | – | – | – | –
